Experimental data from patent US20230271947A1, “SALT AND CRYSTAL FORM OF KETOHEXOKINASE INHIBITOR AND USE THEREOF” (SHANDONG XUANZHU PHARMA CO., LTD., priority 2020, published 2023).

Assay: Stability investigation of crystal forms A, B, C, D and the amorphous form of the compound of formula (1) (related substances by HPLC, moisture, XRD, DSC)
Type: physicochemical
Conditions: for Stability, testing conclusion: under the above conditions (all placement conditions of the study)
Procedure: (§1) 2.1 Investigation conditions for the crystal form A of the compound of formula (1): • placed at 105° C. for 5 days, opened, and sampled for testing on day 5; • placed at 60° C. for 10 days, opened/closed, and sampled for testing on day 10; • placed at 25° C. and RH 92.5% for 10 days, opened/closed, and sampled for testing on day 10; • placed at 40° C. and RH 75% for one month, opened/closed, and sampled for testing on the last day of the month; and • under illumination, employing a closed way (polyethylene bag + composite film bag) to meet illumination requirements, and sampled for testing.
Illumination requirements: ICH Q1B Stability Testing: Photostability Testing of New Drug Substances and Products.
Determination of related substances: determined according to 0512 HPLC in General Principle (Volume IV) of Chinese Pharmacopoeia (2015 Version).
Moisture determination: determined according to 2 Coulometric Titration in the First Method (Karl Fischer titration) of 0832 Moisture Determination Method in General Principle (Volume IV) of Chinese Pharmacopoeia (2015 Version).
XRD determination: determined according to the Second Method-Powder X-ray Diffraction Method of 0451 X-ray Diffraction Method in General Principle (Volume IV) of Chinese Pharmacopoeia (2015 Version).
DSC determination: precisely weighing an appropriate amount of sample in a Standard disc, covering the Standard disc, placing the Standard disc in a sample disc position in a DSC furnace, placing a blank disc of the same type in a reference position, and carrying out the following temperature rise program:
1. Equilibrate at 25° C.; and
as §1, with “B” for “A”
as §1, with “C” for “A”
1. Equilibrate at 25° C.; and 2. Ramp 10° C. to 200° C.
as §1, with “D” for “A”
as §1, with “amorphous” for “crystal”, “form” for “form A”, “(1):” for “(1): • placed at 105° C. for 5 days, opened, and sampled for testing on day 5;”

[1] = 25° C., RH 92.5%, closed, 10 days
[2] = 25° C., RH 92.5%, opened, 10 days

C[C@H]1CCN1c1nc(N2C[C@@H]3[C@@H](CC(=O)O)[C@@H]3C2)c2c(n1)C(F)(F)CC2 [Amorphous form, 2-((1R,5S,6R)-3-(7,7-difluoro-2-((S)-2-methylazetidin-1-yl)-6,7-dihydro-5H-cyclopenta[d]pyrimidin-4-yl)-3-azabicyclo[3.1.0]hexan-6-yl)acetic acid]
Moisture % (0 day): 0.70% | Total related % (0 day): 0.21% | Trait (0 day): Off-white power | Moisture % [1]: 2.8% | Total related % [1]: 0.35% | Trait [1]: Off-white power | Moisture % [2]: 3.1% | Total related % [2]: 0.38% | Trait [2]: Off-white power | Moisture % (40° C., RH 75%, closed, 1 M): 2.1% | Total related % (40° C., RH 75%, closed, 1 M): 2.98% | Trait (40° C., RH 75%, closed, 1 M): Off-white power | Moisture % (40° C., RH 75%, opened, 1 M): 1.9% | Total related % (40° C., RH 75%, opened, 1 M): 2.86% | Trait (40° C., RH 75%, opened, 1 M): Off-white power | Moisture % (60° C., closed, 10 days): 0.73% | Total related % (60° C., closed, 10 days): 3.92% | Trait (60° C., closed, 10 days): Off-white power | Moisture % (60° C., opened, 10 days): 0.56% | Total related % (60° C., opened, 10 days): 4.30% | Trait (60° C., opened, 10 days): Off-white power | Moisture % (Avoid light for 18 days): 1.26% | Total related % (Avoid light for 18 days): 0.42% | Trait (Avoid light for 18 days): Off-white power | Stability, testing conclusion: less stable than that of the crystal form A, the crystal form B, the crystal form C and the crystal form D

C[C@H]1CCN1c1nc(N2C[C@@H]3[C@@H](CC(=O)O)[C@@H]3C2)c2c(n1)C(F)(F)CC2 [Crystal form A, 2-((1R,5S,6R)-3-(7,7-difluoro-2-((S)-2-methylazetidin-1-yl)-6,7-dihydro-5H-cyclopenta[d]pyrimidin-4-yl)-3-azabicyclo[3.1.0]hexan-6-yl)acetic acid]
DSC (0 day): 170.33 °C | Moisture % (0 day): 0.53% | Total related % (0 day): 0.18% | Trait (0 day): Off-white power | DSC [1]: 170.42 °C | Moisture % [1]: 0.54% | Total related % [1]: 0.24% | Trait [1]: Off-white power | XRD [1]: Same as day 0 | DSC [2]: 170.23 °C | Moisture % [2]: 0.54% | Total related % [2]: 0.24% | Trait [2]: Off-white power | XRD [2]: Same as day 0 | DSC (40° C., RH 75%, closed, 1 M): 170.38 °C | Moisture % (40° C., RH 75%, closed, 1 M): 0.57% | Total related % (40° C., RH 75%, closed, 1 M): 0.22% | Trait (40° C., RH 75%, closed, 1 M): Off-white power | XRD (40° C., RH 75%, closed, 1 M): Same as day 0 | DSC (40° C., RH 75%, opened, 1 M): 170.32 °C | Moisture % (40° C., RH 75%, opened, 1 M): 0.46% | Total related % (40° C., RH 75%, opened, 1 M): 0.24% | Trait (40° C., RH 75%, opened, 1 M): Off-white power | XRD (40° C., RH 75%, opened, 1 M): Same as day 0 | DSC (60° C., closed, 10 days): 170.34 °C | Moisture % (60° C., closed, 10 days): 0.61% | Total related % (60° C., closed, 10 days): 0.24% | Trait (60° C., closed, 10 days): Off-white power | XRD (60° C., closed, 10 days): Same as day 0 | DSC (60° C., opened, 10 days): 170.26 °C | Moisture % (60° C., opened, 10 days): 0.54% | Total related % (60° C., opened, 10 days): 0.25% | Trait (60° C., opened, 10 days): Off-white power | XRD (60° C., opened, 10 days): Same as day 0 | DSC (105° C., opened, 5 days): 170.65 °C | Moisture % (105° C., opened, 5 days): 0.54% | Total related % (105° C., opened, 5 days): 0.30% | Trait (105° C., opened, 5 days): Off-white power | XRD (105° C., opened, 5 days): Same as day 0 | DSC (Avoid light for 18 days): 170.20 °C | Moisture % (Avoid light for 18 days): 0.47% | Total related % (Avoid light for 18 days): 0.19% | Trait (Avoid light for 18 days): Off-white power | XRD (Avoid light for 18 days): Same as day 0 | Stability, testing conclusion: relatively stable

C[C@H]1CCN1c1nc(N2C[C@@H]3[C@@H](CC(=O)O)[C@@H]3C2)c2c(n1)C(F)(F)CC2 [Crystal form B, 2-((1R,5S,6R)-3-(7,7-difluoro-2-((S)-2-methylazetidin-1-yl)-6,7-dihydro-5H-cyclopenta[d]pyrimidin-4-yl)-3-azabicyclo[3.1.0]hexan-6-yl)acetic acid]
DSC (0 day): 169.28 °C | Moisture % (0 day): 0.17% | Total related % (0 day): 0.08% | Trait (0 day): White powder | DSC [1]: 169.47 °C | Moisture % [1]: 0.35% | Total related % [1]: 0.10% | Trait [1]: White powder | XRD [1]: Same as day 0 | DSC [2]: 169.31 °C | Moisture % [2]: 0.26% | Total related % [2]: 0.10% | Trait [2]: White powder | XRD [2]: Same as day 0 | DSC (40° C., RH 75%, closed, 1 M): 169.57 °C | Moisture % (40° C., RH 75%, closed, 1 M): 0.39% | Total related % (40° C., RH 75%, closed, 1 M): 0.08% | Trait (40° C., RH 75%, closed, 1 M): White powder | XRD (40° C., RH 75%, closed, 1 M): Same as day 0 | DSC (40° C., RH 75%, opened, 1 M): 169.43 °C | Moisture % (40° C., RH 75%, opened, 1 M): 0.35% | Total related % (40° C., RH 75%, opened, 1 M): 0.09% | Trait (40° C., RH 75%, opened, 1 M): White powder | XRD (40° C., RH 75%, opened, 1 M): Same as day 0 | DSC (60° C., closed, 10 days): 169.35 °C | Moisture % (60° C., closed, 10 days): 0.21% | Total related % (60° C., closed, 10 days): 0.11% | Trait (60° C., closed, 10 days): White powder | XRD (60° C., closed, 10 days): Same as day 0 | DSC (60° C., opened, 10 days): 169.27 °C | Moisture % (60° C., opened, 10 days): 0.26% | Total related % (60° C., opened, 10 days): 0.13% | Trait (60° C., opened, 10 days): White powder | XRD (60° C., opened, 10 days): Same as day 0 | DSC (105° C., opened, 5 days): 169.53 °C ° C. | Moisture % (105° C., opened, 5 days): 0.28% | Total related % (105° C., opened, 5 days): 0.22% | Trait (105° C., opened, 5 days): White powder | XRD (105° C., opened, 5 days): Same as day 0 | DSC (Avoid light for 18 days): 169.15 °C | Moisture % (Avoid light for 18 days): 0.17% | Total related % (Avoid light for 18 days): 0.07% | Trait (Avoid light for 18 days): White powder | XRD (Avoid light for 18 days): Same as day 0 | Stability, testing conclusion: relatively stable

C[C@H]1CCN1c1nc(N2C[C@@H]3[C@@H](CC(=O)O)[C@@H]3C2)c2c(n1)C(F)(F)CC2 [Crystal form C, 2-((1R,5S,6R)-3-(7,7-difluoro-2-((S)-2-methylazetidin-1-yl)-6,7-dihydro-5H-cyclopenta[d]pyrimidin-4-yl)-3-azabicyclo[3.1.0]hexan-6-yl)acetic acid]
DSC (0 day): 172.44 °C | Moisture % (0 day): 0.24% | Total related % (0 day): 1.25% | Trait (0 day): Off-white power | DSC [1]: 172.36 °C | Moisture % [1]: 0.09% | Total related % [1]: 1.06% | Trait [1]: Off-white power | XRD [1]: Same as day 0 | DSC [2]: 172.35 °C | Moisture % [2]: 0.11% | Total related % [2]: 1.07% | Trait [2]: Off-white power | XRD [2]: Same as day 0 | DSC (40° C., RH 75%, closed, 1 M): 172.36 °C | Moisture % (40° C., RH 75%, closed, 1 M): 0.19% | Total related % (40° C., RH 75%, closed, 1 M): 1.30% | Trait (40° C., RH 75%, closed, 1 M): Off-white power | XRD (40° C., RH 75%, closed, 1 M): Same as day 0 | DSC (40° C., RH 75%, opened, 1 M): 172.35 °C | Moisture % (40° C., RH 75%, opened, 1 M): 0.13% | Total related % (40° C., RH 75%, opened, 1 M): 1.31% | Trait (40° C., RH 75%, opened, 1 M): Off-white power | XRD (40° C., RH 75%, opened, 1 M): Same as day 0 | DSC (60° C., closed, 10 days): 172.21 °C | Moisture % (60° C., closed, 10 days): 0.08% | Total related % (60° C., closed, 10 days): 2.20% | Trait (60° C., closed, 10 days): Off-white power | XRD (60° C., closed, 10 days): Same as day 0 | DSC (60° C., opened, 10 days): 172.21 °C | Moisture % (60° C., opened, 10 days): 0.08% | Total related % (60° C., opened, 10 days): 2.09% | Trait (60° C., opened, 10 days): Off-white power | XRD (60° C., opened, 10 days): Same as day 0 | Total related substances, change (105° C. for 5 days and 60° C. for 10 days): slightly increased | DSC (105° C., opened, 5 days): 171.85 °C | Moisture % (105° C., opened, 5 days): 0.24% | Total related % (105° C., opened, 5 days): 1.77% | Trait (105° C., opened, 5 days): Off-white power | XRD (105° C., opened, 5 days): Same as day 0 | DSC (Avoid light for 18 days): 172.42 °C | Moisture % (Avoid light for 18 days): 0.13% | Total related % (Avoid light for 18 days): 1.25% | Trait (Avoid light for 18 days): Off-white power | XRD (Avoid light for 18 days): Same as day 0 | Related substances, content, moisture, and XRD stability (opened/closed, 25° C. and RH 92.5% for 10 days, 40° C. and RH 75% for one month): good
